Results reported in US12091601B2 (priority 2020, dated 2024).
Where a name gives a salt, the structure may show the parent alone.

How the values were obtained:
[1] = Inhibition and re-activation of HF: quartz dissolution; conditions: by themselves
Experimental: HF was inhibited by the addition of monoethanolamine (MEA), until no quartz (SiO2) was dissolved. A molar ratio of 1 MEA to HF or greater is necessary to inhibit HF's ability to dissolve quartz, and a ratio of 1.1 will used in further testing to provide a reasonable safety margin.
The inhibited HF solution can regain its quartz dissolving potential through the addition of an acidic solution, such as HCl.
To evaluate the performance of mud acids created with acid compositions comprising HCl:MEA in ratios of 4.4:1; 6.3:1; and 11.3:1, inhibited HF mud acids were prepared using HCl and acid compositions comprising HCl:MEA in ratios of 4.4:1; and 11.3:1 with various amount of free HCl (6 to 12%).

[2] = cited from earlier work

Compound	quartz dissolved [1]	concentration above which precipitation occurs / solubility [2] [µg/mL]
Cl [HCl]	essentially no quartz	
F[Si-2](F)(F)(F)(F)F.[Na+].[Na+] [Na2SiF6]		6400
